# Data from ChEMBL document CHEMBL3885861, “Open TG-GATES”.
# Species on record: Rattus norvegicus
# Assay: Open TG-GATES - Regimen: Single
# Format: toxicity, organism-based, Sprague-Dawley
# Set-up: regimen Single, gender Male, age 6 weeks
# Details: in vivo, po, 600 mg/kg, route gavage, dose level Middle; for APTT / Bas / Eos / Fbg / Hb / Ht / Lym / MCH / MCHC / MCV / Mono / Neu / PT / Plat / RBC / Ret / WBC: tissue Blood; for KIDNEY_L / KIDNEY_R / KIDNEY_TOTAL: tissue Kidney; for LIVER: tissue Liver; for A/G / ALP / ALT / AST / BUN / CRE / Ca / Cl / DBIL / GLC / IP / K / LDH / Na / PL / RALB / TBIL / TC / TG / TP / gamma-GTP: tissue Plasma
structure (smiles),measurement,setting,value
NNC(=O)c1ccncc1 [ISONIAZID],TERMINAL_BW,3 h,221.5 g
same,APTT,3 h,19.8 s
same,Bas,3 h,0%
same,Eos,3 h,1%
same,Fbg,3 h,231 mg/dL
same,Hb,3 h,13.7 g/dL
same,Ht,3 h,37.8%
same,Lym,3 h,72.6%
same,MCH,3 h,22 pg
same,MCHC,3 h,36.2%
same,MCV,3 h,60.8 fL
same,Mono,3 h,2.4%
same,Neu,3 h,23.2%
same,PT,3 h,12.2 s
same,Plat,3 h,125.7 x10_4/uL
same,RBC,3 h,622.4 x10_4/ul
same,Ret,3 h,7.4%
same,WBC,3 h,67.3 x10_2/uL
same,KIDNEY_L,3 h,0.9 g
same,KIDNEY_R,3 h,0.9 g
same,KIDNEY_TOTAL,3 h,1.9 g
same,LIVER,3 h,9.6 g
same,A/G,3 h,1.7
same,ALP,3 h,950 IU/L
same,ALT,3 h,39.6 IU/L
same,AST,3 h,73.6 IU/L
same,BUN,3 h,9 mg/dL
same,CRE,3 h,0.4 mg/dL
same,Ca,3 h,10.3 mg/dL
same,Cl,3 h,104 meq/L
same,DBIL,3 h,0.064 mg/dL
same,GLC,3 h,197.6 mg/dL
same,IP,3 h,10 mg/dL
same,K,3 h,3.7 meq/L
same,LDH,3 h,177.2 IU/L
same,Na,3 h,141.4 meq/L
same,PL,3 h,134.8 mg/dL
same,RALB,3 h,3.6 g/dL
same,TBIL,3 h,0.1 mg/dL
same,TC,3 h,78.2 mg/dL
same,TG,3 h,49.6 mg/dL
same,TP,3 h,5.7 g/dL
same,gamma-GTP,3 h,1 IU/L
same,TERMINAL_BW,6 h,219.2 g
same,APTT,6 h,18.4 s
same,Bas,6 h,0%
same,Eos,6 h,0.8%
same,Fbg,6 h,223.4 mg/dL
same,Hb,6 h,13.6 g/dL
same,Ht,6 h,37.9%
same,Lym,6 h,78.8%
same,MCH,6 h,22 pg
same,MCHC,6 h,36%
same,MCV,6 h,61.3 fL
same,Mono,6 h,1.8%
same,Neu,6 h,17.6%
same,PT,6 h,12.2 s
same,Plat,6 h,133.3 x10_4/uL
same,RBC,6 h,619 x10_4/ul
same,Ret,6 h,7.6%
same,WBC,6 h,75.7 x10_2/uL
same,KIDNEY_L,6 h,1 g
same,KIDNEY_R,6 h,1 g
same,KIDNEY_TOTAL,6 h,1.9 g
same,LIVER,6 h,9.6 g
same,A/G,6 h,1.6
same,ALP,6 h,838.6 IU/L
same,ALT,6 h,27.6 IU/L
same,AST,6 h,52.2 IU/L
same,BUN,6 h,9.4 mg/dL
same,CRE,6 h,0.4 mg/dL
same,Ca,6 h,10.3 mg/dL
same,Cl,6 h,104.6 meq/L
same,DBIL,6 h,0.066 mg/dL
same,GLC,6 h,210 mg/dL
same,IP,6 h,9.3 mg/dL
same,K,6 h,3.6 meq/L
same,LDH,6 h,202.8 IU/L
same,Na,6 h,142.8 meq/L
same,PL,6 h,142.2 mg/dL
same,RALB,6 h,3.5 g/dL
same,TBIL,6 h,0.1 mg/dL
same,TC,6 h,71 mg/dL
same,TG,6 h,90.4 mg/dL
same,TP,6 h,5.8 g/dL
same,gamma-GTP,6 h,1 IU/L
same,TERMINAL_BW,9 h,219.9 g
same,APTT,9 h,17.5 s
same,Bas,9 h,0%
same,Eos,9 h,0.8%
same,Fbg,9 h,222.8 mg/dL
same,Hb,9 h,13.5 g/dL
same,Ht,9 h,37.4%
same,Lym,9 h,70.6%
same,MCH,9 h,21.9 pg
same,MCHC,9 h,36.1%
same,MCV,9 h,60.6 fL
same,Mono,9 h,1.6%
same,Neu,9 h,26%
same,PT,9 h,12.3 s
same,Plat,9 h,116 x10_4/uL
same,RBC,9 h,616.6 x10_4/ul
same,Ret,9 h,7.1%
same,WBC,9 h,71.5 x10_2/uL
same,KIDNEY_L,9 h,1 g
same,KIDNEY_R,9 h,1 g
same,KIDNEY_TOTAL,9 h,2 g
same,LIVER,9 h,8.8 g
same,A/G,9 h,1.5
same,ALP,9 h,752.2 IU/L
same,ALT,9 h,23.2 IU/L
same,AST,9 h,44.6 IU/L
same,BUN,9 h,7.8 mg/dL
same,CRE,9 h,0.4 mg/dL
same,Ca,9 h,10.3 mg/dL
same,Cl,9 h,105 meq/L
same,DBIL,9 h,0.066 mg/dL
same,GLC,9 h,200.6 mg/dL
same,IP,9 h,9 mg/dL
same,K,9 h,3.8 meq/L
same,LDH,9 h,203.6 IU/L
same,Na,9 h,142.6 meq/L
same,PL,9 h,152.8 mg/dL
same,RALB,9 h,3.4 g/dL
same,TBIL,9 h,0.1 mg/dL
same,TC,9 h,78.2 mg/dL
same,TG,9 h,74.6 mg/dL
same,TP,9 h,5.7 g/dL
same,gamma-GTP,9 h,1 IU/L
same,TERMINAL_BW,24 h,215.6 g
same,APTT,24 h,19.7 s
same,Bas,24 h,0.4%
same,Eos,24 h,0.8%
same,Fbg,24 h,218.6 mg/dL
same,Hb,24 h,14.5 g/dL
same,Ht,24 h,39.6%
same,Lym,24 h,86.4%
same,MCH,24 h,22.4 pg
same,MCHC,24 h,36.7%
same,MCV,24 h,61 fL
same,Mono,24 h,2.4%
same,Neu,24 h,8.8%
same,PT,24 h,12.9 s
same,Plat,24 h,139.5 x10_4/uL
same,RBC,24 h,649.2 x10_4/ul
same,Ret,24 h,3.7%
same,WBC,24 h,85.9 x10_2/uL
same,KIDNEY_L,24 h,1 g
same,KIDNEY_R,24 h,1 g
same,KIDNEY_TOTAL,24 h,2.1 g
same,LIVER,24 h,9.8 g
same,A/G,24 h,1.7
same,ALP,24 h,817.6 IU/L
same,ALT,24 h,15.2 IU/L
same,AST,24 h,32.2 IU/L
same,BUN,24 h,17.8 mg/dL
same,CRE,24 h,0.4 mg/dL
same,Ca,24 h,10.6 mg/dL
same,Cl,24 h,104.4 meq/L
same,DBIL,24 h,0.06 mg/dL
same,GLC,24 h,189.2 mg/dL
same,IP,24 h,8.9 mg/dL
same,K,24 h,3.9 meq/L
same,LDH,24 h,202.4 IU/L
same,Na,24 h,143.4 meq/L
same,PL,24 h,123.2 mg/dL
same,RALB,24 h,3.6 g/dL
same,TBIL,24 h,0.1 mg/dL
same,TC,24 h,58.6 mg/dL
same,TG,24 h,69.6 mg/dL
same,TP,24 h,5.7 g/dL
same,gamma-GTP,24 h,1 IU/L
